Results reported in EP2098236A1, “Cytostatic compositions” (Medizinische Hochschule Hannover, priority 2008, dated 2009).

Columns and labels:
childhood ALL [1] = details: UK MRC ALL 97, cited from earlier work
[2] = in vivo; cited from earlier work
[3] = test system: patients with childhood ALL; details: cited from earlier work; for central nervous system (CNS) relapse: COALL-92, maintenance, p = 0.053
childhood ALL [4] = details: CCG-1952, cited from earlier work; for event-free survival: at 5 years, p = 0.02
[5] = test system: TPMT wildtype lymphoblastoid cells; experiment: cells; details: Homo sapiens, Lymphoblastoid cell, 72 h, read-out: Mean percentage viable cells after 72 h

Row | SMILES | patients who developed non-fatal hepatic toxicity with features of veno-occlusive disease (VOD) (childhood ALL [1]) | half lives [2] | central nervous system (CNS) relapse [3] [%] | Treatment interruptions ([3]; COALL-92) | event-free survival (childhood ALL [4]) [%] | viability at 0.125 µM [5] [%] | viability at 0.25 µM [5] [%] | viability at 0.5 µM [5] [%] | viability at 1 µM [5] [%] | isolated disease recurrence in the CNS, odds ratio (childhood ALL [1]; vs 6-mercaptopurine, 95% confidence interval 0.30 - 0.92) | risk of death in remission, odds ratio (childhood ALL [1]; vs 6-mercaptopurine, 95% confidence interval 1.20 - 4.14, mainly due to infections) | Treatment interruptions, higher rate compared to the 6-mercaptopurine arm ([3]; COALL-92) [fold] | incidence of thrombocytopenia (< 100 x 10^9/l) without evidence of leukocytopenia (<1 x 10^9/l), higher compared to the 6-mercaptopurine arm ([3]; COALL-92) [fold] | patients with hepatic VOD-like symptoms (childhood ALL [4]) | viability at 0.0625 µM [5] [%]
1 | Sc1ncnc2nc[nH]c12 [MP, 6-mercaptopurine] | less than 2% | approximately 21 minutes | 0.8 | 2.8 % of maintenance treatment weeks | 77.1 | 89.3 | 84.7 | 79.8 | 73.1 | – | – | – | – | – | –
2 | Nc1nc2nc[nH]c2c(=S)[nH]1 [TG, 6-thioguanine] | 11% | ~90 min | 3.4 | 4.7 % of maintenance treatment weeks | 85.1 | 75.9 | 71.3 | – | – | 0.53 | 2.22 | 1.7 | 7.5 | approximately 20% | 81.2
